Data as given in patent US9328173B2, “Multifunctional antibodies binding to EGFR and MET” (Eli Lilly and Company, priority 2013, dated 2016).
Read-outs that look alike come from different tables or passages of the source.

How the values were obtained:
HCC827 cells = test: Restoring HCC827 sensitivity to erlotinib in the presence of HGF; conditions: Homo sapiens, HCC827, 72 h, read-out: AVG = average % of cell viability
Method: Briefly, 3×10^3 cells/well in 100 μL culture medium may be plated in 96 well plates and incubated overnight at 37° C., 5% CO2. […] Cell viability may be determined by measuring luminescence.

HT-29 cells = test: Restoring HT-29 sensitivity to PLX4032 in the presence of HGF and EGF; format: cell-based; conditions: Homo sapiens, HT-29, 120 h; read-out: AVG = average % of cell viability
Method: The colon cancer cell line HT-29 has a B-Raf mutation and is sensitive to the B-Raf inhibitor PLX4032. […] Briefly, 3×10^3 cells/well in 100 μL culture medium may be plated in 96 well plates and incubated overnight at 37° C., 5% CO2. […] At the end of an additional 5 days of cell growth, plates may be equilibrated to room temperature for 30 minutes and 100 μL per well of CellTiter-Glo® reagent (Promega Corp.) may be added. Cell viability can be determined by measuring luminescence.

FaDu cells = test: Restoring FaDu sensitivity to lapatinib in the presence of HGF or EGF; format: cell-based; conditions: Homo sapiens, antibodies 50 nM, read-out: % of cell viability; for viability at 0.001 µM: lapatinib 0.001 μM; for viability at 0.003 µM: lapatinib 0.003 μM; for viability at 0.01 µM: lapatinib 0.01 μM; for viability at 0.03 µM: lapatinib 0.03 μM; for viability at 0.1 µM: lapatinib 0.1 μM; for viability at 0.3 µM: lapatinib 0.3 μM; for viability at 1 µM: lapatinib 1 μM; for viability at 3 µM: lapatinib 3 μM; for viability at 10 µM: lapatinib 10 μM
Method: Briefly, 3×10^3 cells/well in 100 μL culture medium may be plated in 96 well plates and incubated overnight at 37° C., 5% CO2. […] At the end of an additional 5 days of cell growth, plates may be equilibrated to room temperature for 30 minutes and 100 μL per well of CellTiter-Glo® reagent (Promega Corp.) may be added. Cell viability can be determined by measuring luminescence.

MKN45 cells = test: MKN45 apoptosis assay (caspase-3/7 positive cells, […]); format: cell-based, human; conditions: antibody 100 nM, untreated = 100.00
Method: The gastric cancer cell line MKN45 can be used to assay apoptosis induced by antibodies. Briefly, 3×10^3 cells/well in 80 μL culture medium may be plated in 96 well plates and incubated overnight at 37° C., 5% CO2. CellEvent™ reagent (Life Technologies, Carlsbad, Calif.) may be diluted in cell culture medium and added at 10 μL per well. […] The caspase-3/7 positive cells may be measured in real-time by […]™ Kinetic Imaging System (Essen Bioscience, Ann Arbor, Mich.) with 3 hours intervals at 37° C., 5% CO2 for a total of 120 hours.

ERK phosphorylation = conditions: in vitro ERK phosphorylation assay; cited from earlier work

Question: For `C#Cc1cccc(Nc2ncnc3cc(OCCOC)c(OCCOC)cc23)c1` [Erlotinib, erlotinib], which viability at 1 µM (HCC827 cells) is on record?
Answer: Its viability at 1 µM is 18%.

Question: With `CCCS(=O)(=O)Nc1ccc(F)c(C(=O)c2c[nH]c3ncc(-c4ccc(Cl)cc4)cc23)c1F` [PLX, PLX4032] as the molecule, how does the viability at 0.00032 µM (HT-29 cells) read?
Answer: Its viability at 0.00032 µM is 101%.

Question: And the viability at 0.0016 µM (HT-29 cells)?
Answer: Its viability at 0.0016 µM is 99.9%.

Question: And the viability at 0.008 µM (HT-29 cells)?
Answer: Its viability at 0.008 µM is 97.6%.

Question: What about the viability at 0.04 µM (HT-29 cells) of the same molecule?
Answer: The viability at 0.04 µM was 83.1%.

Question: And the viability at 0.2 µM (HT-29 cells)?
Answer: Its viability at 0.2 µM is 56.7%.

Question: What about the viability at 1 µM (HT-29 cells) of the same molecule?
Answer: Its viability at 1 µM is 33.7%.

Question: What does the source list for `CS(=O)(=O)CCNCc1ccc(-c2ccc3ncnc(Nc4ccc(OCc5cccc(F)c5)c(Cl)c4)c3c2)o1` [lapatinib]?
Answer: viability at 0.001 µM (FaDu cells; E = EGF (50 ng/ml)): 109%; viability at 0.001 µM (FaDu cells; H = HGF (50 ng/ml)): 99.5%; viability at 0.003 µM (FaDu cells; E = EGF (50 ng/ml)): 109%; viability at 0.003 µM (FaDu cells; H = HGF (50 ng/ml)): 101%; viability at 0.01 µM (FaDu cells; E = EGF (50 ng/ml)): 78.7%; viability at 0.01 µM (FaDu cells; H = HGF (50 ng/ml)): 95.8%; viability at 0.03 µM (FaDu cells; E = EGF (50 ng/ml)): 69.4%; viability at 0.03 µM (FaDu cells; H = HGF (50 ng/ml)): 68.8%; viability at 0.1 µM (FaDu cells; E = EGF (50 ng/ml)): 45.6%; viability at 0.1 µM (FaDu cells; H = HGF (50 ng/ml)): 45.4%; viability at 0.3 µM (FaDu cells; E = EGF (50 ng/ml)): 32.5%; viability at 0.3 µM (FaDu cells; H = HGF (50 ng/ml)): 32.5%; viability at 1 µM (FaDu cells; E = EGF (50 ng/ml)): 26.3%; viability at 1 µM (FaDu cells; H = HGF (50 ng/ml)): 26.9%; viability at 3 µM (FaDu cells; E = EGF (50 ng/ml)): 19%; viability at 3 µM (FaDu cells; H = HGF (50 ng/ml)): 18.5%; viability at 10 µM (FaDu cells; E = EGF (50 ng/ml)): 19.6%; viability at 10 µM (FaDu cells; H = HGF (50 ng/ml)): 17.1%

Question: Which results are given for “anti-MET Ab: parental anti-MET antibody C8-H241 (human IgG4 subtype), described in WO 2010/059654 [reference compound]”?
Answer: AVG = average % increase of cell apoptosis (MKN45 cells; 24 hr): 100.35%; AVG = average % increase of cell apoptosis (MKN45 cells; 48 hr): 222.81%; AVG = average % increase of cell apoptosis (MKN45 cells; 72 hr): 275.40%; AVG = average % increase of cell apoptosis (MKN45 cells; 96 hr): 286.63%; AVG = average % increase of cell apoptosis (MKN45 cells; 120 hr): 353.84%

B1: EM1-mAb: bispecific antibody targeting both EGFR and cMET made by controlled Fab Arm Exchange (antibody, chains of the INN, looked up, V domains shown)
VH: QVQLVESGGGVVQPGRSLRLSCAASGFTFSTYGMHWVRQAPGKGLEWVAVIWDDGSYKYYGDSVKGRFTISRDNSKNTLYLQMNSLRAEDTAVYYCARDGITMVRGVMKDYFDYWGQGTLVTVSS
VL: AIQLTQSPSSLSASVGDRVTITCRASQDISSALVWYQQKPGKAPKLLIYDASSLESGVPSRFSGSESGTDFTLTISSLQPEDFATYYCQQFNSYPLTFGGGTKVEIK
VH2: QVQLVQSGAEVKKPGASVKVSCETSGYTFTSYGISWVRQAPGHGLEWMGWISAYNGYTNYAQKLQGRVTMTTDTSTSTAYMELRSLRSDDTAVYYCARDLRGTNYFDYWGQGTLVTVSS
VL2: DIQMTQSPSSVSASVGDRVTITCRASQGISNWLAWFQHKPGKAPKLLIYAASSLLSGVPSRFSGSGSGTDFTLTISSLQPEDFATYYCQQANSFPITFGQGTRLEIK
Question: For B1, which “activity compared to the combination of monovalent control antibodies” value (ERK phosphorylation) is on record?
Answer: Its value is “superior activity”.
